Literature values in patent publication US20090252807A1, “Nanoparticulate and Controlled Release Compositions Comprising Prostaglandin Derivatives” (ELAN PHARMA INTERNATIONAL LIMITED, priority 2005, published 2009).
Like-named read-outs stand apart in the source and are kept apart here.

Legend:
platelet adhesiveness = details: in vitro
coronary blood flow = details: intra-coronary injection 100 ng/kg or intravenous injection 3 μg/kg, anesthetized dogs
blood pressure = details: 100 and 300 μg/kg orally in rats

(E)-7-{(1R,2R,3R)-3-hydroxy-2-[(3S,5S)-E-3hydroxy-5-methyl-1-nonenyl]-5-oxocyclopentyl}-2-heptonoic acid α-cyclodextrin inclusion compound [Limaprost]
solubility in diethylether: practically insoluble
solubility in ethanol: very slightly soluble
solubility in ethyl acetate: practically insoluble
solubility in water: freely soluble
solubility in water (listed as limaprost): practically insoluble
potency relative to PGE1 as an inhibitor of platelet adhesiveness (platelet adhesiveness): 10-1,000 times
increase of coronary blood flow (coronary blood flow): 60-80%
hypotensive effects (blood pressure): Significant hypotensive effects
